Measured values from patent US4797421A, “Antioxidant comprising proanthocyanidin as principal component” (Kikkoman Corporation, priority 1987, dated 1989).

Test: Amount of lipid peroxide in salad oil heated at 180° C. with oxygen bubbling (Test Example 1, Table 1)
Parameters: Amount of lipid peroxide: unit not given here
Conditions: 0.2 mg/ml in salad oil, oxygen 2 ml/sec, 40 minutes; for Amount of lipid peroxide: no additive 65.2, non-treated 10.1
Protocol: A commercially sold salad oil (a product by Showa Sangyo Co., Ltd.) was pipetted 5 ml each into test tubes. Then various kinds of proanthocyanidins shown in Table 1 below were added thereto a concentration of 0.2 mg/ml and dissolved by stirring. The test tubes were kept in an 180° C. thermostatic oil bath and oxygen gas was bubbled into them at a rate of 2 ml/sec. 40 mintues thereafter, the amount of lipid peroxide in the salad oil was measured by the method shown in Yagi's Vitamins, Vol. 49, pp. 403-405. Used as controls were said salad oil added with no proanthocyanidin (control I) and those added with a commercial catechin, a gallocatechin obtained as a by-product in Preparation Example 5 and an epigallocatechin gallate, which are the monomers forming a structural unit of proanthocyanidins (control II). These control salad oil samples were similarly treated and the amount of lipid peroxide was similarly measured, the results being shown in Table 1.

Compound | Amount of lipid peroxide | Lipid peroxide rise inhibition rate [%]
Oc1cc(O)c2c(c1)OC1(c3ccc(O)c(O)c3)Oc3cc(O)c4c(c3C2C1O)OC(c1ccc(O)c(O)c1)C(O)C4 (centres unmarked) [Dimeric procyanidin A-2, procyanidin A-2] | 25.0 | –
Oc1cc(O)c2c(c1)O[C@H](c1cc(O)c(O)c(O)c1)[C@@H](O)C2 [Gallocatechin, gallocatechin, reference compound] | 44.7 | 32
Oc1cc(O)c2c(c1)O[C@H](c1cc(O)c(O)c(O)c1)[C@@H](O)[C@@H]2c1c(O)cc(O)c2c1O[C@H](c1cc(O)c(O)c(O)c1)[C@@H](O)C2 [Dimeric prodelphinidin B-3, prodelphinidin B-3] | 17.2 | 85
Oc1cc(O)c2c(c1)OC(c1ccc(O)c(O)c1)C(O)C2c1c(O)cc(O)c2c1OC(c1ccc(O)c(O)c1)C(O)C2c1c(O)cc(O)c2c1OC(c1ccc(O)c(O)c1)C(O)C2c1c(O)cc(O)c2c1OC(c1ccc(O)c(O)c1)C(O)C2 (centres unmarked) [Tetrameric procyanidin] | 29.1 | 62
O=C(OC1Cc2c(O)cc(O)c(C3c4c(O)cc(O)cc4OC(c4ccc(O)c(O)c4)C3OC(=O)c3cc(O)c(O)c(O)c3)c2OC1c1ccc(O)c(O)c1)c1cc(O)c(O)c(O)c1 (centres unmarked) [procyanidin B-2 gallic acid diester] | 10.5 | 98
Oc1cc(O)c2c(c1)O[C@H](c1ccc(O)c(O)c1)[C@@H](O)C2 [Commercial d-catechin, d-catechin, reference compound] | 54.7 | –
Oc1cc(O)c2c(c1)OC(c1cc(O)c(O)c(O)c1)C(O)C2c1c(O)cc(O)c2c1OC(c1cc(O)c(O)c(O)c1)C(O)C2c1c(O)cc(O)c2c1OC(c1ccc(O)c(O)c1)C(O)C2 (centres unmarked) [Trimeric prodelphinidin] | 22.9 | 74
Oc1cc(O)c2c(c1)OC(c1ccc(O)c(O)c1)C(O)C2c1c(O)cc(O)c2c1OC(c1ccc(O)c(O)c1)C(O)C2 (centres unmarked) [Dimeric procyanidin B-2, procyanidin B-2] | 22.4 | –
O=C(OC1Cc2c(O)cc(O)c(C3c4c(O)cc(O)cc4OC(c4cc(O)c(O)c(O)c4)C3OC(=O)c3cc(O)c(O)c(O)c3)c2OC1c1cc(O)c(O)c(O)c1)c1cc(O)c(O)c(O)c1 (centres unmarked) [prodelphinidin B-2 gallic acid diester] | 10.1 | 100
O=C(O[C@@H]1Cc2c(O)cc(O)cc2O[C@@H]1c1cc(O)c(O)c(O)c1)c1cc(O)c(O)c(O)c1 [Epigallocatechin gallate, reference compound] | 45.0 | 35
